Source: ChEMBL document CHEMBL4004825 (J Med Chem, 2017)

How the values were obtained:
[1] = Half-life in monkey blood; type: ADME, tissue-based, Macaca mulatta; details: rhesus monkey
[2] = Half-life in rat blood; type: ADME, tissue-based
[3] = Stability in rat liver microsomes; type: ADME, microsome; details: read-out: Stability
[4] = Half life in mouse plasma; type: ADME
[5] = Volume of distribution at steady state in rat; type: ADME; details: in vivo, read-out: Vdss
[6] = Blood clearance in mouse; type: ADME, organism-based; details: whole blood
[7] = Volume of distribution at steady state in mouse; type: ADME, organism-based; details: in vivo, read-out: Vdss
[8] = Volume of distribution at steady state in dog; type: ADME, Canis lupus familiaris; details: in vivo, read-out: Vdss
[9] = target: Receptor tyrosine-protein kinase erbB-2 (Homo sapiens, UniProt P04626); experiment: Inhibition of human N-terminal His-tagged HER2 expressed in baculovirus expression system in presence of 1 mM ATP
[10] = target: T1, Tyrosine-protein kinase TXK (Homo sapiens, UniProt P42681); experiment: Inhibition of recombinant human N-terminal GST-tagged TXK using GEPLYWSFPAKKK as substrate measured every 60 secs for 1 hr by PK/LDH coupled spectrophotometric assay
T1 sequence (P42681 whole entry): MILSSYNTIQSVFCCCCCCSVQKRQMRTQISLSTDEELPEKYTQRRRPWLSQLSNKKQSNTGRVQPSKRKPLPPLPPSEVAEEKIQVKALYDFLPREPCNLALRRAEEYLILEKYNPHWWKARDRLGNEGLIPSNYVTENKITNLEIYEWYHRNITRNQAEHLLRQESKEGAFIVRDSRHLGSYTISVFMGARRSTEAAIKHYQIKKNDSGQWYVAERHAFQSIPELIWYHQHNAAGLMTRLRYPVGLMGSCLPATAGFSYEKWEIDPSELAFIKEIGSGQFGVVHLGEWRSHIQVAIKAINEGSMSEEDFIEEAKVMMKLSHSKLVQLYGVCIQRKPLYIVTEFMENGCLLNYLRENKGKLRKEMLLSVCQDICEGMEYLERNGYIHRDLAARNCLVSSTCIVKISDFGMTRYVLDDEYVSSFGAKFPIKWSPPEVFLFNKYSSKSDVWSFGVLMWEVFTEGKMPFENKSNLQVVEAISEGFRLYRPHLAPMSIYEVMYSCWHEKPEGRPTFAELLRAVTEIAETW

[11] = Stability in human liver microsomes; type: ADME, microsome; details: read-out: Stability
[12] = Aqueous solubility of the compound; type: physicochemical
[13] = Volume of distribution at steady state in monkey; type: ADME, Macaca mulatta; details: rhesus monkey, in vivo; read-out: Vdss
[14] = Half life in rat plasma; type: ADME
[15] = Blood clearance in rat; type: ADME; details: whole blood
[16] = Blood clearance in dog; type: ADME, Canis lupus familiaris; details: whole blood
[17] = Unbound intrinsic clearance in dog hepatocytes assessed per million cells; type: ADME, cell-based, Canis lupus familiaris, Hepatocyte
[18] = Half-life in Sprague-Dawley rat blood at 1 uM by LC-MS/MS analysis; type: ADME, tissue-based
[19] = target: T2, Dual specificity mitogen-activated protein kinase kinase 7 (Homo sapiens, UniProt O14733); experiment: Inhibition of human N-terminal GST-tagged full length MAP2K7 expressed in baculovirus infected Sf21 insect cells in presence of 1 mM ATP
T2 sequence (O14733 whole entry): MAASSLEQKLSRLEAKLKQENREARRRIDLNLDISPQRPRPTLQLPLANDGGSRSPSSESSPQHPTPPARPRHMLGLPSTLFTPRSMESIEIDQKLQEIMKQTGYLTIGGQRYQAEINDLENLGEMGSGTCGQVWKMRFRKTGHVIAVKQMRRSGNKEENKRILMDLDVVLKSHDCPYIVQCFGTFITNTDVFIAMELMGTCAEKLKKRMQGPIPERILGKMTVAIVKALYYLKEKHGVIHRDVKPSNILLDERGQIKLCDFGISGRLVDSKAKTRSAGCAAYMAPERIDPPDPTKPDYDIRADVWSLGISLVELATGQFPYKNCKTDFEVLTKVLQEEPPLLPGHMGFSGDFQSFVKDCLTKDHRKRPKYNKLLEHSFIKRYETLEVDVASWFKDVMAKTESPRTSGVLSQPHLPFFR

[20] = target: T3, Tyrosine-protein kinase Blk (Homo sapiens, UniProt P51451); experiment: Inhibition of full length recombinant human His-tagged cytoplasmic BLK expressed in baculovirus expression system in presence of 1 mM ATP by KT236 probe based TR-FRET assay
[21] = Unbound intrinsic clearance in human hepatocytes assessed per million cells; type: ADME, cell-based, Hepatocyte
[22] = Unbound intrinsic clearance in mouse hepatocytes assessed per million cells; type: ADME, cell-based, Hepatocyte
[23] = Oral bioavailability in dog; type: ADME, organism-based, Canis lupus familiaris; details: in vivo
[24] = Oral bioavailability in monkey; type: ADME, organism-based, Macaca mulatta; details: rhesus monkey, in vivo
[25] = target: Epidermal growth factor receptor (Homo sapiens, UniProt P00533); experiment: Inhibition of N-terminal GST-tagged human EGFR cytoplasmic domain expressed in baculovirus infected Sf21 insect cells in presence of 1 mM ATP
[26] = Unbound intrinsic clearance in rat hepatocytes assessed per million cells; type: ADME, cell-based, Hepatocyte
[27] = Permeability in RRCK cells; type: ADME, cell-based, Canis lupus familiaris, MDCKII-LE; details: dog, MDCK; read-out: permeability
[28] = Half life in monkey plasma; type: ADME, Macaca mulatta; details: rhesus monkey
[29] = target: T3, Tyrosine-protein kinase Blk; experiment: Inhibition of full length recombinant human His-tagged cytoplasmic BLK expressed in baculovirus expression system by KT236 probe based TR-FRET assay
[30] = Oral bioavailability in rat; type: ADME, organism-based; details: in vivo
[31] = Half life in dog plasma; type: ADME, Canis lupus familiaris
[32] = Blood clearance in monkey; type: ADME, Macaca mulatta; details: rhesus monkey, whole blood
[33] = target: T4, Tyrosine-protein kinase Tec (Homo sapiens, UniProt P42680); experiment: Inhibition of full length human His-tagged TEC by KT178 probe based TR-FRET assay
T4 sequence (P42680 whole entry): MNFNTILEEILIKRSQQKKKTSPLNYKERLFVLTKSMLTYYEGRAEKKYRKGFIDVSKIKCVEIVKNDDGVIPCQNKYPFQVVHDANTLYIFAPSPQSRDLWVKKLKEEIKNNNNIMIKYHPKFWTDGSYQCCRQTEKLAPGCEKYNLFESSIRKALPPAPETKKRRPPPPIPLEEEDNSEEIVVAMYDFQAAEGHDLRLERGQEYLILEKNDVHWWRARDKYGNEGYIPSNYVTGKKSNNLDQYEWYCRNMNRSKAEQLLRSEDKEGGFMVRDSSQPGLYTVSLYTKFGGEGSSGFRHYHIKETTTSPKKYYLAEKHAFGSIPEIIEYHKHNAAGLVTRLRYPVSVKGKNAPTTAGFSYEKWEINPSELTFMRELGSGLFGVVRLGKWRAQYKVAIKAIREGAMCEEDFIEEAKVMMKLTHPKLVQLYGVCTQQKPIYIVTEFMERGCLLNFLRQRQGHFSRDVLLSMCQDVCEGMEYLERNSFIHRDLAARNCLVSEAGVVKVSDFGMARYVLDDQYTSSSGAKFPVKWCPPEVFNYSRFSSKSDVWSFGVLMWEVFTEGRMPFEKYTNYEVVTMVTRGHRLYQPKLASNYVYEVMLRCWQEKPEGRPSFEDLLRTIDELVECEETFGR

[34] = Unbound intrinsic clearance in monkey hepatocytes assessed per million cells; type: ADME, cell-based, Macaca mulatta, Hepatocyte; details: rhesus monkey
[35] = Oral bioavailability in mouse; type: ADME, organism-based; details: in vivo

T3 sequence (P51451 whole entry): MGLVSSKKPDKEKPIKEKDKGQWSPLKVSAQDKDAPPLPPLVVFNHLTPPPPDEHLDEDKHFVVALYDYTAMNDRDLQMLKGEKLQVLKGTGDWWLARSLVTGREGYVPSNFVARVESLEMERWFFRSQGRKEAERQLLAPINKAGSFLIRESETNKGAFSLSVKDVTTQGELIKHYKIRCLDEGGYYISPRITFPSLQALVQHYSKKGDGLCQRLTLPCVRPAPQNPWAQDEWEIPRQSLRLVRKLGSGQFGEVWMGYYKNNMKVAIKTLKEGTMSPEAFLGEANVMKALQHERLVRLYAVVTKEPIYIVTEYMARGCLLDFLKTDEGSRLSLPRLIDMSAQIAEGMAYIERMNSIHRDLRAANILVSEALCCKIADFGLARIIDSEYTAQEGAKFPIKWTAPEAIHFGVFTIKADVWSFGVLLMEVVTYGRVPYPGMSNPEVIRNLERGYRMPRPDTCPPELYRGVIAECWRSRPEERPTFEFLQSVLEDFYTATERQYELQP
Epidermal growth factor receptor, sequence (P00533 whole entry, the tested form may be a part): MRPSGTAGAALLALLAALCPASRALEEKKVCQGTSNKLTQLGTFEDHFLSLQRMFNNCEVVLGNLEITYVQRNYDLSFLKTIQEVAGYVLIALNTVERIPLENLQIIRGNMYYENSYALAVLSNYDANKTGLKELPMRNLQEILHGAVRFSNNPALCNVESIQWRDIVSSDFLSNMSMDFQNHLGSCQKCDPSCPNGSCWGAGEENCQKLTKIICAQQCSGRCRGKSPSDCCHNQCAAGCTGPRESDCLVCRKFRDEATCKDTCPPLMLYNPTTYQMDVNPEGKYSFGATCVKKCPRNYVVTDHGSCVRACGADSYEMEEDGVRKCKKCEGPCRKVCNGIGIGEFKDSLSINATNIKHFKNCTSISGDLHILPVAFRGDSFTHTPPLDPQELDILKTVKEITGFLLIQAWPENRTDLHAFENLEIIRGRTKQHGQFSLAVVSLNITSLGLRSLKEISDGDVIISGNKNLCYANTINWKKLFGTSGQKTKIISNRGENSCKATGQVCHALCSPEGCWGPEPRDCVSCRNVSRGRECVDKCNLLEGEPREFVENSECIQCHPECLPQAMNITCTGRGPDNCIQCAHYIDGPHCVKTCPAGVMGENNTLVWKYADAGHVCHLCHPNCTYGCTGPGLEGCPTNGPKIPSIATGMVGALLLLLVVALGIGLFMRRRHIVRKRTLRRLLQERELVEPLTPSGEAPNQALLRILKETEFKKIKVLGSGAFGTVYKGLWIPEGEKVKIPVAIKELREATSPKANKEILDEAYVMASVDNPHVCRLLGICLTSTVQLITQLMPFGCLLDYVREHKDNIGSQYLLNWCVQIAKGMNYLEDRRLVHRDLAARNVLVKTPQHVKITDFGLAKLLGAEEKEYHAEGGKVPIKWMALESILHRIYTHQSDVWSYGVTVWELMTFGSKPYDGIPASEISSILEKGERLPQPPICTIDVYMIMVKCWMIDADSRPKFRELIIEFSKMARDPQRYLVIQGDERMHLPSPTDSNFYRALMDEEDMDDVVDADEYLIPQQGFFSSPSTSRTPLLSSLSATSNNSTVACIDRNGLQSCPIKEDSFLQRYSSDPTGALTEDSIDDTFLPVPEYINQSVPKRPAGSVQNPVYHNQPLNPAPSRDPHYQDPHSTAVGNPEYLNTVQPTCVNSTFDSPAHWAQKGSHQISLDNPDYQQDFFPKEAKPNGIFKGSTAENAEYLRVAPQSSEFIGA
Receptor tyrosine-protein kinase erbB-2, sequence (P04626 whole entry): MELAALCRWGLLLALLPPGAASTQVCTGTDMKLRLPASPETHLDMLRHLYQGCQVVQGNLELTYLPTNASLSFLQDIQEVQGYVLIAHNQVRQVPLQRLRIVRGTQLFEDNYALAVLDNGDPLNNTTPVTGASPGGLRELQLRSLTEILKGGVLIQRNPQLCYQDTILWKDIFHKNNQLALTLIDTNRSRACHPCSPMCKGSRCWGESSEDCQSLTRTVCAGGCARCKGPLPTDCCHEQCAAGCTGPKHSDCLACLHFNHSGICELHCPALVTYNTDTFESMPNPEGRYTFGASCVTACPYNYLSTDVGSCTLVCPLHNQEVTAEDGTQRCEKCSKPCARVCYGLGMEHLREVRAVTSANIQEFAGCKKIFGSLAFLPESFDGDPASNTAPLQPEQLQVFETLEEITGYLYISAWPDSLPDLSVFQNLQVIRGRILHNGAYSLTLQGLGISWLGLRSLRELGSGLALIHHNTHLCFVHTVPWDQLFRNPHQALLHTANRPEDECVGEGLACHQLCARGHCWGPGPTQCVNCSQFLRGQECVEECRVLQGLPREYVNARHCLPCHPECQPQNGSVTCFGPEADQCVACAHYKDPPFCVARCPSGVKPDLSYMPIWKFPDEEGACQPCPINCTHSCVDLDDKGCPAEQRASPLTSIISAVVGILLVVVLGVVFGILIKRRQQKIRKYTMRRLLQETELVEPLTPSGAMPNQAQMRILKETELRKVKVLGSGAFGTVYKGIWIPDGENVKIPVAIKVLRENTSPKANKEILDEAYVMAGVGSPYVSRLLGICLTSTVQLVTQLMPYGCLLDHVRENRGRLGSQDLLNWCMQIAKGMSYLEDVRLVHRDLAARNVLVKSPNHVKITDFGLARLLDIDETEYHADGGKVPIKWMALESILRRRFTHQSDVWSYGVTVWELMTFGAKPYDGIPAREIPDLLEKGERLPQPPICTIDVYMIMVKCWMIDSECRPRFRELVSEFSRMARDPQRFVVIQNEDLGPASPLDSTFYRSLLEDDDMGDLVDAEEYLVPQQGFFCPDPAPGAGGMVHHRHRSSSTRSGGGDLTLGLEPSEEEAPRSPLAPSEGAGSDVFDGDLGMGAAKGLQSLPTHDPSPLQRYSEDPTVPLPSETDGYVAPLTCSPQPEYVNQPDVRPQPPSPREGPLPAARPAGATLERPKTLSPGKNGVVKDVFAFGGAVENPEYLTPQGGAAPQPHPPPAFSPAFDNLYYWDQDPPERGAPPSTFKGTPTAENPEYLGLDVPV

## C=CC(=O)N1C[C@H](Nc2ncnc3[nH]ccc23)CC[C@@H]1C [RITLECITINIB]
[1]
  half-life: 0.617 h
[2]
  half-life: 2.68 h
[3]
  microsomal CLint: < 15 µL/min/mg
[4]
  half-life: 1.3 h
[5]
  Vd: 1.4 L/kg
[6]
  clearance: 48 mL/min/kg
[7]
  Vd: 0.8 L/kg
[8]
  Vd: 1.1 L/kg
[9]
  IC50: > 50 µM
[10]
  Ki: 0.131 µM
[11]
  microsomal CLint: 8 µL/min/mg
[12]
  solubility: > 2000 µg/mL
[13]
  Vd: 2.6 L/kg
[14]
  half-life: 0.3 h
[15]
  clearance: 53 mL/min/kg
[16]
  clearance: 8.6 mL/min/kg
[17]
  CL free: 2.1 µL/min
[18]
  half-life at 1 µM: 2.68 h
[19]
  IC50: > 50 µM
[20]
  IC50: 19 µM
[21]
  CL free: 2.8 µL/min
[22]
  CL free: 53 µL/min
[23]
  bioavailability: 109%
[24]
  bioavailability: 56%
[25]
  IC50: > 50 µM
[26]
  CL free: 14 µL/min
[27]
  Papp: 15 ×10⁻⁶ cm/s
[28]
  half-life: 0.7 h
[29]
  Ki: 32.4 µM
[30]
  bioavailability: 85%
[31]
  half-life: 1.1 h
[32]
  clearance: 42 mL/min/kg
[33]
  Ki: 0.679 µM
[34]
  CL free: 7.6 µL/min
[35]
  bioavailability: 62%
